The source of these data is BindingDB's records for patent US11926628 (Gilead Sciences, 2024).

Sequence of Diacylglycerol kinase alpha (P23743 whole entry): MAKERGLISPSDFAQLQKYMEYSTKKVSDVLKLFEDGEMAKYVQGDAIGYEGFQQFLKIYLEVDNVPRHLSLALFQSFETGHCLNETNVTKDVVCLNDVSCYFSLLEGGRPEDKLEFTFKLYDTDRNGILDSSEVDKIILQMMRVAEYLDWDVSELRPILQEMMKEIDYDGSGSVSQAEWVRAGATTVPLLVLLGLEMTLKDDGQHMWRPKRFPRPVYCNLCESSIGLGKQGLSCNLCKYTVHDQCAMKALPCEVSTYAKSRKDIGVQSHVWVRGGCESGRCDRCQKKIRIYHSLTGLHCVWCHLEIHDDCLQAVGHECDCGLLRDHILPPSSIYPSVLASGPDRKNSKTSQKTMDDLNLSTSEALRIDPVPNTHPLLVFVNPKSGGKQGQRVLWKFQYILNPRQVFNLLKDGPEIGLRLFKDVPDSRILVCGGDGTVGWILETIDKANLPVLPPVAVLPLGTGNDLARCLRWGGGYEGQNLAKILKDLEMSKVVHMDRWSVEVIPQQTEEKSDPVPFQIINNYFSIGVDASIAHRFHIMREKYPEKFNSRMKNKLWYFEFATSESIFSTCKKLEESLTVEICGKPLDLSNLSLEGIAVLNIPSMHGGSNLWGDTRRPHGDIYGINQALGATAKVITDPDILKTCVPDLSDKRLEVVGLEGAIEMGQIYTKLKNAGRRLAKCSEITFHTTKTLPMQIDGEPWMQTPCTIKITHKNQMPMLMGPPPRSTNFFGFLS

The test addresses Diacylglycerol kinase alpha (Homo sapiens, UniProt P23743). Kind of test: DGKα Biochemical Activity Assay. How it is done: Ten nanoliters of test compound dissolved in DMSO at various concentrations were dispensed into a 384-well low volume nonbinding service white plates (Corning #3824) using a Labcyte Echo instrument. Recombinant DGKα (Carna Biosciences) in assay buffer (5 μL in 50 mM MOPS [3-(N-morpholino) propanesulfonic acid], pH 7.2; 0.0025% Triton X-100; 1 mM dithiothreitol; 5 mM MgCl2, 200 μM ATP) was added to the compound-containing plate and was incubated for 15 minutes at 25° C. A substrate solution (5 μL in 1.7 mM 1,2-dioleoyl-sn-glycerol [18:1 DAG], 13.5 mM 1-palmitoyl-2-oleoyl-sn-glycero-3-phospho-L-serine [16:0-18:1 PS](POPS), 2 μM CaCl2, 100 mM Octylglucoside (OG), 1 mM DTT) (obtained from Carna Biosciences) diluted in DGK ALPHA assay buffer was then added to start the reaction. Final concentrations were 1 nM DGKα, 100 μM ATP, 1 μM calcium chloride, 0.85 mM 1,2-dioleoyl-sn-glycerol (18:1 DAG), 6.75 mM 1-palmitoyl-2-oleoyl-sn-glycero-3-phospho-L-serine (16:0-18:1 PS) (POPS), 1 μM CaCl2), 50 mM Octylglucoside (OG) and 5 mM MgCl2. The reaction mixture was incubated at 25° C. for 1 hour. ADP-Glo Reagent (10 μL, 10 mM Mg added) provided by the kit was added to each well and incubated at 25° C. for 40 minutes. Then, 20 μL of Kinase Detection Reagent was added and incubated at 25° C. for 40 minutes. Luciferase activity of each well was measured via luminescence on an Envision plate reader (PerkinElmer).
Broadly, the IC50 is the midpoint of a concentration-inhibition curve. `CN(C)c1ccc2c(N(C)c3cccc(C#CC(C)(C)C)c3)nc3nncn3c2n1` [US11926628, Example 110]: the concentration for half-maximal inhibition (IC50) came out at 930 nM. In turn, `CN(C)c1ccc2c(N(C)c3cccc(-c4ccc(C5CC5)cc4)c3)nc3nncn3c2n1` [US11926628, Example 112] displayed an IC50 of 66.7 nM. Consider `Cc1nnc2nc(N3CCCCc4c(C#CC(C)(C)C#N)cccc43)c3c(F)cncc3n12` [US11926628, Example 64], for which the midpoint of inhibition, the IC50, lay at 5.79 nM. Consider `Cc1nnc2nc(N3CCCc4c(C#CC5(C(F)(F)F)CC5)cccc43)c3c(F)cncc3n12` [US11926628, Example 41], for which the IC50 was found to be 7.82 nM. For `COc1ccc(-c2cccc(N(C)c3nc4nncn4c4nc(N(C)C)ccc34)c2)cn1` [US11926628, Example 111], the half-maximal inhibitory concentration (IC50) turned out to be 375 nM. The value for `CCOc1ccc2c(N(C)c3cccc(-c4ccc(C5CC5)cc4)c3)nc3nncn3c2n1` [US11926628, Example 113] was 702 nM; that for `CN(c1cccc(C#CC(C)(C)C)c1)c1nc2nncn2c2cnccc12` [US11926628, Example 60] was 61.5 nM.
